Converted amounts (≈) assume the structure as drawn. The source made the active and inactive calls. The rule behind the calls is not given here.
Assays:
Citrobacter freundii [1] = assay: Antibacterial activity against gentamicin-resistant Citrobacter freundii clinical isolate assessed as susceptible isolates after 18 hrs by agar dilution method; type: functional
Morganella morganii [2] = assay: Antibacterial activity against gentamicin-resistant Morganella morganii clinical isolate assessed as susceptible isolates after 18 hrs by agar dilution method; type: functional
Serratia marcescens [3] = assay: Antibacterial activity against gentamicin-resistant Serratia marcescens clinical isolate assessed as susceptible isolates after 18 hrs by agar dilution method; type: functional
Escherichia coli [4] = assay: Antibacterial activity against non-gentamicin-resistant Escherichia coli clinical isolate assessed as susceptible isolates after 18 hrs by agar dilution method; type: functional
Pseudomonas aeruginosa [5] = assay: Antibacterial activity against gentamicin-resistant Pseudomonas aeruginosa clinical isolate assessed as susceptible isolates after 18 hrs by agar dilution method; type: functional
Escherichia coli [6] = assay: Antibacterial activity against gentamicin-resistant Escherichia coli clinical isolate after 18 hrs by agar dilution method; type: functional
[7] = system: Staphylococcus epidermidis; assay: Antibacterial activity against non-gentamicin-resistant Staphylococcus epidermidis clinical isolate assessed as susceptible isolates after 18 hrs by agar dilution method; type: functional
Citrobacter freundii [8] = assay: Antibacterial activity against gentamicin-resistant Citrobacter freundii clinical isolate after 18 hrs by agar dilution method; type: functional
Proteus mirabilis [9] = assay: Antibacterial activity against gentamicin-resistant Proteus mirabilis clinical isolate after 18 hrs by agar dilution method; type: functional
Pseudomonas aeruginosa [10] = assay: Antibacterial activity against non-gentamicin-resistant Pseudomonas aeruginosa clinical isolate after 18 hrs by agar dilution method; type: functional
[11] = system: Escherichia coli BL21(DE3); assay: Acetylation activity of AAC(6')-APH(2'') in Escherichia coli BL21(DE3) assessed as production of free pyridine-4-thiolate
Providencia rettgeri [12] = assay: Antibacterial activity against gentamicin-resistant Proteus rettgeri clinical isolate after 18 hrs by agar dilution method; type: functional
Proteus mirabilis [13] = assay: Antibacterial activity against non-gentamicin-resistant Proteus mirabilis clinical isolate after 18 hrs by agar dilution method; type: functional
[14] = system: Staphylococcus epidermidis; assay: Antibacterial activity against gentamicin-resistant Staphylococcus epidermidis clinical isolate assessed as susceptible isolates after 18 hrs by agar dilution method; type: functional
[15] = system: Haemophilus parainfluenzae; assay: Antibacterial activity against non-gentamicin-resistant Haemophilus parainfluenzae clinical isolate assessed as susceptible isolates after 18 hrs by agar dilution method; type: functional, organism-based
Pseudomonas sp. [16] = assay: Antibacterial activity against non-gentamicin-resistant Pseudomonas spp. clinical isolate assessed as susceptible isolates after 18 hrs by agar dilution method; type: functional
Citrobacter koseri [17] = assay: Antibacterial activity against gentamicin-resistant Citrobacter diversus clinical isolate after 18 hrs by agar dilution method; type: functional
Haemophilus influenzae = assay: Antibacterial activity against non-gentamicin-resistant Haemophilus influenzae clinical isolate after 18 hrs by agar dilution method; type: functional
Enterobacter cloacae [18] = assay: Antibacterial activity against non-gentamicin-resistant Enterobacter cloacae clinical isolate assessed as susceptible isolates after 18 hrs by agar dilution method; type: functional
Citrobacter koseri [19] = assay: Antibacterial activity against non-gentamicin-resistant Citrobacter diversus clinical isolate after 18 hrs by agar dilution method; type: functional
Klebsiella aerogenes [20] = assay: Antibacterial activity against non-gentamicin-resistant Enterobacter aerogenes clinical isolate assessed as susceptible isolates after 18 hrs by agar dilution method; type: functional
Escherichia coli [21] = assay: Antibacterial activity against non-gentamicin-resistant Escherichia coli clinical isolate after 18 hrs by agar dilution method; type: functional
Serratia marcescens [22] = assay: Antibacterial activity against gentamicin-resistant Serratia marcescens clinical isolate after 18 hrs by agar dilution method; type: functional
[23] = system: Haemophilus parainfluenzae; assay: Antibacterial activity against non-gentamicin-resistant Haemophilus parainfluenzae clinical isolate after 18 hrs by agar dilution method; type: functional
Proteus mirabilis [24] = assay: Antibacterial activity against gentamicin-resistant Proteus mirabilis clinical isolate assessed as susceptible isolates after 18 hrs by agar dilution method; type: functional
[25] = system: Staphylococcus epidermidis; assay: Antibacterial activity against gentamicin-resistant Staphylococcus epidermidis clinical isolate after 18 hrs by agar dilution method; type: functional
Staphylococcus aureus [26] = assay: Antibacterial activity against non-gentamicin-resistant Staphylococcus aureus clinical isolate assessed as susceptible isolates after 18 hrs by agar dilution method; type: functional
Citrobacter freundii [27] = assay: Antibacterial activity against non-gentamicin-resistant Citrobacter freundii clinical isolate after 18 hrs by agar dilution method; type: functional
Klebsiella aerogenes [28] = assay: Antibacterial activity against gentamicin-resistant Enterobacter aerogenes clinical isolate assessed as susceptible isolates after 18 hrs by agar dilution method; type: functional
[29] = system: Acinetobacter calcoaceticus; assay: Antibacterial activity against gentamicin-resistant Acinetobacter calcoaceticus clinical isolate assessed as susceptible isolates after 18 hrs by agar dilution method; type: functional
Enterobacter cloacae [30] = assay: Antibacterial activity against gentamicin-resistant Enterobacter cloacae clinical isolate assessed as susceptible isolates after 18 hrs by agar dilution method; type: functional
Enterococcus faecalis = assay: Antibacterial activity against gentamicin-resistant Enterococcus faecalis clinical isolate assessed as susceptible isolates after 18 hrs by agar dilution method; type: functional, organism-based
Pseudomonas sp. [31] = assay: Antibacterial activity against gentamicin-resistant Pseudomonas spp. clinical isolate assessed as susceptible isolates after 18 hrs by agar dilution method; type: functional
Morganella morganii [32] = assay: Antibacterial activity against gentamicin-resistant Morganella morganii clinical isolate after 18 hrs by agar dilution method; type: functional
Staphylococcus aureus [33] = assay: Antibacterial activity against gentamicin-resistant Staphylococcus aureus clinical isolate assessed as susceptible isolates after 18 hrs by agar dilution method; type: functional
Proteus mirabilis [34] = assay: Antibacterial activity against non-gentamicin-resistant Proteus mirabilis clinical isolate assessed as susceptible isolates after 18 hrs by agar dilution method; type: functional
Pseudomonas aeruginosa [35] = assay: Antibacterial activity against non-gentamicin-resistant Pseudomonas aeruginosa clinical isolate assessed as susceptible isolates after 18 hrs by agar dilution method; type: functional
Citrobacter koseri [36] = assay: Antibacterial activity against non-gentamicin-resistant Citrobacter diversus clinical isolate assessed as susceptible isolates after 18 hrs by agar dilution method; type: functional
Morganella morganii [37] = assay: Antibacterial activity against non-gentamicin-resistant Morganella morganii clinical isolate after 18 hrs by agar dilution method; type: functional
Enterobacter cloacae [38] = assay: Antibacterial activity against gentamicin-resistant Enterobacter cloacae clinical isolate after 18 hrs by agar dilution method; type: functional
Providencia rettgeri [39] = assay: Antibacterial activity against non-gentamicin-resistant Proteus rettgeri clinical isolate after 18 hrs by agar dilution method; type: functional
Klebsiella aerogenes [40] = assay: Antibacterial activity against non-gentamicin-resistant Enterobacter aerogenes clinical isolate after 18 hrs by agar dilution method; type: functional
[41] = system: Escherichia coli BL21(DE3); assay: Phosphorylation activity of AAC(6')-APH(2'') in Escherichia coli BL21(DE3) assessed as oxidation of NADH by pyruvate kinase
Providencia rettgeri [42] = assay: Antibacterial activity against gentamicin-resistant Proteus rettgeri clinical isolate assessed as susceptible isolates after 18 hrs by agar dilution method; type: functional
Citrobacter koseri [43] = assay: Antibacterial activity against gentamicin-resistant Citrobacter diversus clinical isolate assessed as susceptible isolates after 18 hrs by agar dilution method; type: functional
Escherichia coli [44] = assay: Antibacterial activity against gentamicin-resistant Escherichia coli clinical isolate assessed as susceptible isolates after 18 hrs by agar dilution method; type: functional
Staphylococcus aureus [45] = assay: Antibacterial activity against gentamicin-resistant Staphylococcus aureus clinical isolate after 18 hrs by agar dilution method; type: functional

CCN[C@@H]1C[C@H](N)[C@@H](O[C@H]2OC(CN)=CC[C@H]2N)[C@H](O)[C@H]1O[C@H]1OC[C@](C)(O)[C@H](NC)[C@H]1O [NETILMICIN]
Activity (Citrobacter freundii [1]): 47.4% | Activity (Morganella morganii [2]): 41.7% | Activity (Serratia marcescens [3]): 10% | Activity (Escherichia coli [4]): 100% | Activity (Pseudomonas aeruginosa [5]): 2.9% | MIC50 (Escherichia coli [6]): 8 µg/mL (≈ 16.8 µM) | MIC90 (Escherichia coli [6]): 64 µg/mL (≈ 135 µM) | Activity [7]: 100% | MIC50 (Citrobacter freundii [8]): 8 µg/mL (≈ 16.8 µM) | MIC90 (Citrobacter freundii [8]): > 128 µg/mL | MIC50 (Proteus mirabilis [9]): 16 µg/mL (≈ 33.6 µM) | MIC90 (Proteus mirabilis [9]): > 128 µg/mL | MIC50 (Pseudomonas aeruginosa [10]): 8 µg/mL (≈ 16.8 µM) | MIC90 (Pseudomonas aeruginosa [10]): 32 µg/mL (≈ 67.3 µM) | Km [11]: 304 µM | MIC50 (Providencia rettgeri [12]): 16 µg/mL (≈ 33.6 µM) | MIC90 (Providencia rettgeri [12]): 128 µg/mL (≈ 269 µM) | MIC50 (Proteus mirabilis [13]): 1 µg/mL (≈ 2.1 µM) | MIC90 (Proteus mirabilis [13]): 2 µg/mL (≈ 4.21 µM) | Activity [14]: 84.6% | Activity [15]: inactive | Activity (Pseudomonas sp. [16]): 72.7% | MIC50 (Citrobacter koseri [17]): > 128 µg/mL | MIC90 (Citrobacter koseri [17]): > 128 µg/mL | MIC50 (Haemophilus influenzae): 1 µg/mL (≈ 2.1 µM) | MIC90 (Haemophilus influenzae): 2 µg/mL (≈ 4.21 µM) | Activity (Enterobacter cloacae [18]): 98.2% | MIC50 (Citrobacter koseri [19]): 0.5 µg/mL (≈ 1.05 µM) | MIC90 (Citrobacter koseri [19]): 0.5 µg/mL (≈ 1.05 µM) | Activity (Klebsiella aerogenes [20]): 98.1% | MIC50 (Escherichia coli [21]): 0.5 µg/mL (≈ 1.05 µM) | MIC90 (Escherichia coli [21]): 0.5 µg/mL (≈ 1.05 µM) | MIC50 (Serratia marcescens [22]): > 128 µg/mL | MIC90 (Serratia marcescens [22]): > 128 µg/mL | MIC50 [23]: 1 µg/mL (≈ 2.1 µM) | MIC90 [23]: 2 µg/mL (≈ 4.21 µM) | Activity (Proteus mirabilis [24]): 36.4% | MIC50 [25]: 2 µg/mL (≈ 4.21 µM) | MIC90 [25]: 32 µg/mL (≈ 67.3 µM) | Activity (Staphylococcus aureus [26]): 88.3% | MIC50 (Citrobacter freundii [27]): 1 µg/mL (≈ 2.1 µM) | MIC90 (Citrobacter freundii [27]): 16 µg/mL (≈ 33.6 µM) | Activity (Klebsiella aerogenes [28]): 30% | Activity [29]: 20% | Activity (Enterobacter cloacae [30]): 5.3% | Activity (Enterococcus faecalis): inactive | Activity (Pseudomonas sp. [31]): 0% | MIC50 (Morganella morganii [32]): 8 µg/mL (≈ 16.8 µM) | MIC90 (Morganella morganii [32]): 16 µg/mL (≈ 33.6 µM) | Activity (Staphylococcus aureus [33]): 47.2% | Activity (Proteus mirabilis [34]): 98.4% | Activity (Pseudomonas aeruginosa [35]): 63.9% | Activity (Citrobacter koseri [36]): 100% | MIC50 (Morganella morganii [37]): 1 µg/mL (≈ 2.1 µM) | MIC90 (Morganella morganii [37]): 2 µg/mL (≈ 4.21 µM) | MIC50 (Enterobacter cloacae [38]): 128 µg/mL (≈ 269 µM) | MIC90 (Enterobacter cloacae [38]): > 128 µg/mL | MIC50 (Providencia rettgeri [39]): 2 µg/mL (≈ 4.21 µM) | MIC90 (Providencia rettgeri [39]): 8 µg/mL (≈ 16.8 µM) | MIC50 (Klebsiella aerogenes [40]): 0.5 µg/mL (≈ 1.05 µM) | MIC90 (Klebsiella aerogenes [40]): 1 µg/mL (≈ 2.1 µM) | Km [41]: 308 µM | Activity (Providencia rettgeri [42]): 40% | Activity (Citrobacter koseri [43]): 7.1% | Activity (Escherichia coli [44]): 66.7% | MIC50 (Staphylococcus aureus [45]): 16 µg/mL (≈ 33.6 µM) | MIC90 (Staphylococcus aureus [45]): 128 µg/mL (≈ 269 µM)

Source: ChEMBL document CHEMBL1275533, “In vitro antibacterial activity of vertilmicin and its susceptibility to modifications by the recombinant AAC6'-APH2'' enzyme” (2008)
